Source: patent publication US9884849B2, “Fluorinated benzofuranyl-pyrimidine derivatives containing a sulfoximine group” (Bayer Pharma Aktiengesellschaft, priority 2014, dated 2018)
pIC50: −log10 of the molar value. Read-outs that look alike come from different tables or passages of the source.

What was measured:
[1] = system: MOLM-13 cells; assay: Proliferation assay MOLM-13 (Method 3); type: cell-based, human; conditions: MOLM-13, 72-hour exposure, Cell Titre-Glo, read-out: Inhibition of MOLM-13 cell proliferation IC50
Procedure: Non-adherent MOLM-13 human acute myeloid leukemia cells (DSMZ ACC 554) were seeded at a density of 5,000 cells/well in a 96-well multititer plate in 100 μL of growth medium supplemented 10% fetal calf serum. After 24 hours, cell viability of one plate (zero-point plate) was determined with the Cell Titre-Glo Luminescent Cell Viability Assay (Promega), while 50 μL of test compound containing medium was added to the wells of the other plates (final concentrations in the range of 0.001-10 μM and DMSO controls; the final concentration of the solvent dimethyl sulfoxide was 0.5%). Cell viability was assessed after 72-hour exposure with the Cell Titre-Glo Luminescent Cell Viability Assay (Promega). IC50 values (inhibitory concentration at 50% of maximal effect) were determined by means of a 4 parameter fit on measurement data which were normalized to vehicle (DMSO) treated cells (=100%) and measurement readings taken immediately before compound exposure (=0%).

[2] = biological target: T1, CDK2/CycE (Homo sapiens, UniProt P24941); assay: CDK2/CycE high ATP kinase assay (Method 2b, TR-FRET); type: biochemical; conditions: 2 mM ATP
T1 construct: GST; purchased ProQinase GmbH (Freiburg, Germany); host or cells: insect cells (Sf9)
Procedure: 2b. CDK2/CycE High ATP Kinase Assay:
CDK2/CycE-Inhibitory Activity of Compounds of the Present Invention at 2 mM Adenosine-Tri-Phosphate (ATP) was Quantified Employing the CDK2/CycE TR-FRET (TR-FRET=Time Resolved Fluorescence Energy Transfer) Assay as Described in the Following Paragraphs.
Recombinant fusion proteins of GST and human CDK2 and of GST and human CycE, expressed in insect cells (Sf9) and purified by Glutathion-Sepharose affinity chromatography, were purchase from ProQinase GmbH (Freiburg, Germany). As substrate for the kinase reaction biotinylated peptide biotin-Ttds-YISPLKSPYKISEG (C-terminus in amid form) was used which can be purchased e.g. form the company JERINI peptide technologies (Berlin, Germany).
For the assay 50 nl of a 100 fold concentrated solution of the test compound in DMSO was pipetted into a black low volume 384 well microtiter plate (Greiner Bio-One, Frickenhausen, Germany), 2 yl of a solution of CDK2/CycE in aqueous assay buffer [50 mM Tris/HCl pH 8.0, 10 mM MgCl2, 1.0 mM dithiothreitol, 0.1 mM sodium ortho-vanadate, 0.01% (v/v) Nonidet-P40 (Sigma)] were added and the mixture was incubated for 15 min at 22° C. to allow pre-binding of the test compounds to the enzyme before the start of the kinase reaction. […] The concentration of CDK2/CycE was adjusted depending of the activity of the enzyme lot and was chosen appropriate to have the assay in the linear range, typical concentrations were in the range of 15 ng/ml. The reaction was stopped by the addition of 5 yl of a solution of TR-FRET detection reagents (0.2 μM streptavidine-XL665 [Cisbio Bioassays, Codolet, France] and 1 nM anti-RB(pSer807/pSer811)-antibody from BD Pharmingen [#558389] and 1.2 nM LANCE EU-W1024 labeled anti-mouse IgG antibody [Perkin-Elmer, product no. AD0077, as an alternative a Terbium-cryptate-labeled anti-mouse IgG antibody from Cisbio Bioassays can be used]) in an aqueous EDTA-solution (100 mM EDTA, 0.2% (w/v) bovine serum albumin in 100 mM HEPES/NaOH pH 7.0).
The resulting mixture was incubated 1 h at 22° C. to allow the formation of complex between the phosphorylated biotinylated peptide and the detection reagents. Subsequently the amount of phosphorylated substrate was evaluated by measurement of the resonance energy transfer from the Eu-chelate to the streptavidine-XL. Therefore, the fluorescence emissions at 620 nm and 665 nm after excitation at 350 nm were measured in a TR-FRET reader, e.g. a Rubystar (BMG Labtechnologies, Offenburg, Germany) or a Viewlux (Perkin-Elmer). The ratio of the emissions at 665 nm and at […] was taken as the measure for the amount of phosphorylated substrate. The data were normalised (enzyme reaction without inhibitor=0% inhibition, all other assay components but no enzyme=100% inhibition).

[3] = system: Caco-2 cells; assay: Proliferation assay Caco-2 (Method 3); type: cell-based, human; conditions: Caco-2, 4 days, crystal violet, read-out: Inhibition of Caco-2 cell proliferation IC50
Procedure: (§1) Cultivated tumour cells (HeLa, human cervical tumour cells, ATCC CCL-2; NCI-H460, human non-small cell lung carcinoma cells, ATCC HTB-177; A2780, human ovarian carcinoma cells, ECACC #93112519; DU 145, hormone-independent human prostate carcinoma cells, ATCC HTB-81; HeLa-MaTu-ADR, multidrug-resistant human cervical carcinoma cells, EPO-GmbH Berlin; Caco-2, human colorectal carcinoma cells, ATCC HTB-37; B16F10, mouse melanoma cells, ATCC CRL-6475) were plated at a density of 5,000 cells/well (DU145, HeLa-MaTu-ADR), 3,000 cells/well (NCI-H460, HeLa), 2,500 cells/well (A2780), 1,500 cells/well (Caco-2), or 1,000 cells/well (B16F10) in a 96-well multititer plate in 200 μL of their respective growth medium supplemented 10% fetal calf serum. After 24 hours, the cells of one plate (zero-point plate) were stained with crystal violet (see below), while the medium of the other plates was replaced by fresh culture medium (200 μl), to which the test substances were added in various concentrations (0 μM, as well as in the range of 0.001-10 μM; the final concentration of the solvent dimethyl sulfoxide was 0.5%). The cells were incubated for 4 days in the presence of test substances. Cell proliferation was determined by staining the cells with crystal violet: the cells were fixed by adding 20 μl/measuring point of an 11% glutaric aldehyde solution for 15 minutes at room temperature. After three washing cycles of the fixed cells with water, the plates were dried at room temperature. The cells were stained by adding 100 μl/measuring point of a 0.1% crystal violet solution (pH 3.0). After three washing cycles of the stained cells with water, the plates were dried at room temperature. The dye was dissolved by adding 100 μl/measuring point of a 10% acetic acid solution. The extinction was determined by photometry at a wavelength of 595 nm. The change of cell number, in percent, was calculated by normalization of the measured values to the extinction values of the zero-point plate (=0%) and the extinction of the untreated (0 μm) cells (=100%). The IC50 values (inhibitory concentration at 50% of maximal effect) were determined by means of a 4 parameter fit.

[4] = system: HeLa cells; assay: Proliferation assay HeLa (Method 3); type: cell-based, human; conditions: 4 days, crystal violet, read-out: Inhibition of HeLa cell proliferation IC50
Procedure: as §1

[5] = system: A2780 cells; assay: Proliferation assay A2780 (Method 3); type: cell-based, human; conditions: A2780, 4 days, crystal violet, read-out: Inhibition of A2780 cell proliferation IC50
Procedure: as §1

Structure (SMILES)	pIC50 [1]	pIC50 [2]	pIC50 [3]	pIC50 [4]	pIC50 [5]	pIC50 ([1]; Homo sapiens, MOLM-13, 72 h)	pIC50 ([3]; Homo sapiens, Caco-2, 96 h)	pIC50 ([4]; Homo sapiens, 96 h)	pIC50 ([5]; Homo sapiens, A2780, 96 h)
Cc1cc(CS(C)(=O)=NC#N)cc(Nc2ncc(F)c(-c3ccc(F)c4ccoc34)n2)c1 (single isomer, unassigned) [Example 15, [(3-{[5-Fluoro-4-(4-fluoro-1-benzofuran-7-yl)pyrimidin-2-yl]amino}-5-methylbenzyl)-(methyl)oxido-λ^6-sulfanylidene]cyanamide]	7.13	6.08	7.17	6.97	7.20	–	–	–	–
Cc1cc(CS(C)(=N)=O)cc(Nc2ncc(F)c(-c3ccc(F)c4ccoc34)n2)c1 (racemic) [Example 16, (rac)-5-Fluoro-4-(4-fluoro-1-benzofuran-7-yl)-N-{3-methyl-5-[(S-methylsulfonimidoyl)-methyl]phenyl}pyrimidin-2-amine]	–	6.31	–	–	–	7.48	7.22	7.34	7.46
Cc1cc(CS(C)(=O)=NC#N)cc(Nc2ncc(F)c(-c3ccc(F)c4ccoc34)n2)c1 (single isomer, unassigned) [Example 14, [(3-{[5-Fluoro-4-(4-fluoro-1-benzofuran-7-yl)pyrimidin-2-yl]amino}-5-methylbenzyl)-(methyl)oxido-λ^6-sulfanylidene]cyanamide]	–	6.07	–	–	–	7.12	7.21	7.02	7.35
CS(=N)(=O)Cc1cccc(Nc2ncc(F)c(-c3ccc(F)c4ccoc34)n2)c1 (racemic) [Example 4, (rac)-5-Fluoro-4-(4-fluoro-1-benzofuran-7-yl)-N-{3-[(S-methylsulfonimidoyl)-methyl]phenyl}-pyrimidin-2-amine]	–	6.29	–	–	–	6.97	6.85	6.53	7.28
CS(=O)(Cc1cc(F)cc(Nc2ncc(F)c(-c3ccc(F)c4ccoc34)n2)c1)=NC#N (racemic) [Example 7, (rac)-[(3-Fluoro-5-{[5-fluoro-4-(4-fluoro-1-benzofuran-7-yl)pyrimidin-2-yl]amino}benzyl)(methyl)-oxido-λ^6-sulfanylidene]cyanamide]	–	6.19	–	–	–	7.77	7.12	7.30	7.64
CS(=O)(Cc1cc(F)cc(Nc2ncc(F)c(-c3ccc(F)c4ccoc34)n2)c1)=NC#N (single isomer, unassigned) [Example 9, [(3-Fluoro-5-{[5-fluoro-4-(4-fluoro-1-benzofuran-7-yl)pyrimidin-2-yl]amino}benzyl)(methyl)-oxido-λ^6-sulfanylidene]cyanamide]	7.62	5.65	7.27	7.51	7.72	–	–	–	–
CS(=O)(Cc1cccc(Nc2ncc(F)c(-c3ccc(F)c4ccoc34)n2)c1)=NC#N (single isomer, unassigned) [Example 3, [(3-{[5-Fluoro-4-(4-fluoro-1-benzofuran-7-yl)pyrimidin-2-yl]amino}benzyl)(methyl)oxido-λ^6-sulfanylidene]cyanamide]	–	6.32	–	–	–	7.33	6.84	6.96	7.17
CS(=O)(Cc1cccc(Nc2ncc(F)c(-c3ccc(F)c4ccoc34)n2)c1)=NC#N (single isomer, unassigned) [Example 2, [(3-{[5-Fluoro-4-(4-fluoro-1-benzofuran-7-yl)pyrimidin-2-yl]amino}benzyl)(methyl)oxido-λ^6-sulfanylidene]cyanamide]	7.54	6.45	7.06	7.00	7.26	–	–	–	–
CS(=N)(=O)Cc1cccc(Nc2ncc(F)c(-c3ccc(F)c4ccoc34)n2)c1 (single isomer, unassigned) [Example 6, 5-Fluoro-4-(4-fluoro-1-benzofuran-7-yl)-N-{3-[(S-methylsulfonimidoyl)-methyl]-phenyl}-pyrimidin-2-amine]	6.93	6.00	6.95	6.94	7.42	–	–	–	–
